{
  "source": "ChEMBL document CHEMBL6182935",
  "about": "“Discovery of a Novel Silybin Derivative for the Treatment of Metabolic Dysfunction-Associated Steatohepatitis” (J Med Chem, 2025)",
  "key": {"[1]": {"assay": "Solubility in ethyl acetate incubated for 10 mins", "format": "physicochemical"}, "[2]": {"assay": "Solubility in methanol incubated for 10 mins", "format": "physicochemical"}, "[3]": {"assay": "Solubility in water incubated for 10 mins", "format": "physicochemical"}, "[4]": {"assay": "Antioxidant activity assessed as clearing rate incubated for 30 mins under dark condition by DPPH free radical scavenging assay", "format": "functional"}, "[5]": {"assay": "Inhibition of lipid peroxidation in egg yolk (unknown origin) at 100 uM preheated with compound and FeSO4 for 15 mins followed by TCA/TBA addition measured after 15 mins by absorbance based assay relative to control", "format": "functional, tissue-based", "design": "scale not given: the % may be the effect or the level left", "conditions": "time 30.0 min"}, "Hepatocyte [6]": {"test_system": "Hepatocyte", "assay": "Anti-MASH activity in palmitate/oleate-stimulated mouse primary hepatocytes assessed as reduction in FASN mRNA level by q-PCR analysis", "format": "functional, cell-based"}, "Hepatocyte [7]": {"test_system": "Hepatocyte", "assay": "Anti-MASH activity in palmitate/oleate-stimulated mouse primary hepatocytes assessed as reduction in ACACA mRNA level by q-PCR analysis", "format": "functional, cell-based"}, "L02 [8]": {"test_system": "L02", "assay": "Anti-inflammatory activity in CCl4-stimulated human LO2 cells assessed as reduction in IL-6 mRNA level at 1 uM", "format": "functional, cell-based"}, "L02 [9]": {"test_system": "L02", "assay": "Anti-inflammatory activity in CCl4-stimulated human LO2 cells assessed as reduction in TNF-alpha mRNA level at 1 uM", "format": "functional, cell-based"}, "Hepatocyte [10]": {"test_system": "Hepatocyte", "assay": "Anti-inflammatory activity in CCl4-stimulated mouse primary hepatocytes assessed as reduction in TNF-alpha mRNA level at 1 uM", "format": "functional, cell-based"}, "Rattus norvegicus [11]": {"test_system": "Rattus norvegicus", "assay": "(§1) Hepatoprotective activity in male Sprague-Dawley rat model of CCl4-induced ALI assessed as reduction in dullness of liver margin at 100 mg/kg, IG qd pretreated with compound for 7 days followed by CCl4 administration after 2 hrs post-compound treatment measured after 16 hrs post-CCl4 injection", "format": "functional, organism-based", "conditions": "time 186.0 hrs"}, "Rattus norvegicus [12]": {"test_system": "Rattus norvegicus", "assay": "Hepatoprotective activity in male Sprague-Dawley rat model of CCl4-induced ALI assessed as reduction in […] somatic indices at 100 mg/kg, IG qd pretreated with compound for 7 days followed by CCl4 administration after 2 hrs post-compound treatment measured after 16 hrs post-CCl4 injection", "format": "functional, organism-based", "conditions": "time 186.0 hrs"}, "Rattus norvegicus [13]": {"test_system": "Rattus norvegicus", "assay": "Hepatoprotective activity in male Sprague-Dawley rat model of CCl4-induced ALI assessed as restoration of serum LDH level at 100 mg/kg, IG qd pretreated with compound for 7 days followed by CCl4 administration after 2 hrs post-compound treatment measured after 16 hrs post-CCl4 injection", "format": "functional, organism-based", "conditions": "time 186.0 hrs"}, "Rattus norvegicus [14]": {"test_system": "Rattus norvegicus", "assay": "as §1, with “acute fat deposition” for “dullness of liver margin”, “injection by oil red O staining based analysis” for “injection”", "format": "functional, organism-based", "conditions": "time 186.0 hrs"}, "Rattus norvegicus [15]": {"test_system": "Rattus norvegicus", "assay": "Hepatoprotective activity in male Sprague-Dawley rat model of CCl4-induced ALI assessed as reduction in MDA level at 100 mg/kg, IG qd pretreated with compound for 7 days followed by CCl4 administration after 2 hrs post-compound treatment measured after 16 hrs post-CCl4 injection", "format": "functional, organism-based", "conditions": "time 186.0 hrs"}, "Mus musculus [16]": {"test_system": "Mus musculus", "assay": "Anti-MASH activity in HFD-fed CCl4-treated male C57BL/6 mouse assessed as reversal of hepatopancreas somatic indices at 150 mg/kg, po qd treated for 4 weeks", "format": "functional, organism-based"}, "Mus musculus [17]": {"test_system": "Mus musculus", "assay": "Anti-MASH activity in HFD-fed CCl4-treated male C57BL/6 mouse assessed as reversal of light color of liver at 150 mg/kg, po qd treated for 4 weeks", "format": "functional, organism-based"}, "Mus musculus [18]": {"test_system": "Mus musculus", "assay": "Anti-MASH activity in HFD-fed CCl4-treated male C57BL/6 mouse assessed as reversal of mottled texture of liver at 150 mg/kg, po qd treated for 4 weeks", "format": "functional, organism-based"}, "Mus musculus [19]": {"test_system": "Mus musculus", "assay": "Anti-MASH activity in HFD-fed CCl4-treated male C57BL/6 mouse assessed as restoration of serum AST level at 150 mg/kg, po qd treated for 4 weeks", "format": "functional, organism-based"}, "Mus musculus [20]": {"test_system": "Mus musculus", "assay": "Anti-MASH activity in HFD-fed CCl4-treated male C57BL/6 mouse assessed as restoration of serum ALT level at 150 mg/kg, po qd treated for 4 weeks", "format": "functional, organism-based"}, "Mus musculus [21]": {"test_system": "Mus musculus", "assay": "Anti-MASH activity in HFD-fed CCl4-treated male C57BL/6 mouse assessed as reduction in inflammation in liver at 150 mg/kg, po qd treated for 4 weeks by H and E/Oil red O staining based analysis", "format": "functional, organism-based"}, "Mus musculus [22]": {"test_system": "Mus musculus", "assay": "Anti-MASH activity in HFD-fed CCl4-treated male C57BL/6 mouse assessed as reduction in steatosis in liver at 150 mg/kg, po qd treated for 4 weeks by H and E/Oil red O staining based analysis", "format": "functional, organism-based"}, "Mus musculus [23]": {"test_system": "Mus musculus", "assay": "Anti-MASH activity in HFD-fed CCl4-treated male C57BL/6 mouse assessed as reduction in fat dyslipidemia at 150 mg/kg, po qd treated for 4 weeks", "format": "functional, organism-based"}, "Mus musculus [24]": {"test_system": "Mus musculus", "assay": "Anti-MASH activity in HFD-fed CCl4-treated male C57BL/6 mouse assessed as reduction in serum triglyceride level at 150 mg/kg, po qd treated for 4 weeks", "format": "functional, organism-based"}, "Mus musculus [25]": {"test_system": "Mus musculus", "assay": "Anti-MASH activity in HFD-fed CCl4-treated male C57BL/6 mouse assessed as reduction in serum cholesterol level at 150 mg/kg, po qd treated for 4 weeks", "format": "functional, organism-based"}, "Mus musculus [26]": {"test_system": "Mus musculus", "assay": "Anti-MASH activity in HFD-fed CCl4-treated male C57BL/6 mouse assessed as reduction in hepatic triglyceride level at 150 mg/kg, po qd treated for 4 weeks by ELISA", "format": "functional, organism-based"}, "Mus musculus [27]": {"test_system": "Mus musculus", "assay": "Anti-MASH activity in HFD-fed CCl4-treated male C57BL/6 mouse assessed as reduction in hepatic cholesterol level at 150 mg/kg, po qd treated for 4 weeks by ELISA", "format": "functional, organism-based"}, "Mus musculus [28]": {"test_system": "Mus musculus", "assay": "Anti-MASH activity in HFD-fed CCl4-treated male C57BL/6 mouse assessed as restoration of liver GSH level at 150 mg/kg, po qd treated for 4 weeks", "format": "functional, organism-based"}, "Mus musculus [29]": {"test_system": "Mus musculus", "assay": "Anti-MASH activity in HFD-fed CCl4-treated male C57BL/6 mouse assessed as decrease in liver MDA level at 150 mg/kg, po qd treated for 4 weeks", "format": "functional, organism-based"}, "Mus musculus [30]": {"test_system": "Mus musculus", "assay": "Anti-MASH activity in HFD-fed CCl4-treated male C57BL/6 mouse assessed as restoration of liver GSH-Px level at 150 mg/kg, po qd treated for 4 weeks", "format": "functional, organism-based"}, "Mus musculus [31]": {"test_system": "Mus musculus", "assay": "Anti-MASH activity in HFD-fed CCl4-treated male C57BL/6 mouse assessed as reduction in liver IL-6 level at 150 mg/kg, po qd treated for 4 weeks by ELISA", "format": "functional, organism-based"}, "Mus musculus [32]": {"test_system": "Mus musculus", "assay": "Anti-MASH activity in HFD-fed CCl4-treated male C57BL/6 mouse assessed as reduction in collagen deposition in liver at 150 mg/kg, po qd treated for 4 weeks by Masson staining based analysis", "format": "functional, organism-based"}, "Mus musculus [33]": {"test_system": "Mus musculus", "assay": "Anti-MASH activity in HFD-fed CCl4-treated male C57BL/6 mouse assessed as reduction in collagen I in liver at 150 mg/kg, po qd treated for 4 weeks by IHC analysis", "format": "functional, organism-based"}, "[34]": {"assay": "Tmax in overnight-fasted male Sprague-Dawley rat at 150 mg/kg, po measured up to 12 hrs by HPLC analysis", "format": "ADME, organism-based", "conditions": "in vivo"}, "[35]": {"assay": "Cmax in overnight-fasted male Sprague-Dawley rat at 150 mg/kg, po measured up to 12 hrs by HPLC analysis", "format": "ADME, organism-based", "conditions": "in vivo"}},
  "note": "Active and inactive are the calls of the source. The rule behind the calls is not given here.",
  "data": [
    {"smiles": "COc1cc([C@@H]2Oc3cc([C@H]4Oc5cc(O)cc(O)c5C(=O)[C@@H]4O)ccc3OC2CS)ccc1O", "note": "(stereo not given in full)", "values": [
      {"measurement": "solubility", "setting": "[1]", "result": "> 1000", "unit": "mg/mL"},
      {"measurement": "solubility", "setting": "[2]", "result": 913, "unit": "mg/mL"},
      {"measurement": "solubility at 10 min", "setting": "[3]", "result": 0.25, "unit": "mg/mL"},
      {"measurement": "Activity", "setting": "[4]", "result": 92.9, "unit": "%"},
      {"measurement": "Activity", "setting": "[5]", "result": 67, "unit": "%"},
      {"measurement": "Activity", "setting": "Hepatocyte [6]", "result": "Active"},
      {"measurement": "Activity", "setting": "Hepatocyte [7]", "result": "Active"},
      {"measurement": "Activity", "setting": "L02 [8]", "result": "Active"},
      {"measurement": "Activity", "setting": "L02 [9]", "result": "Active"},
      {"measurement": "Activity", "setting": "Hepatocyte [10]", "result": "Active"},
      {"measurement": "Activity", "setting": "Rattus norvegicus [11]", "result": "Active"},
      {"measurement": "Activity", "setting": "Rattus norvegicus [12]", "result": "Active"},
      {"measurement": "Activity", "setting": "Rattus norvegicus [13]", "result": "Active"},
      {"measurement": "Activity", "setting": "Rattus norvegicus [14]", "result": "Active"},
      {"measurement": "Activity", "setting": "Rattus norvegicus [15]", "result": "Active; Exhibited Better Efficacy Than Silybin"},
      {"measurement": "Activity", "setting": "Mus musculus [16]", "result": "Active"},
      {"measurement": "Activity", "setting": "Mus musculus [17]", "result": "Active; Activity Better Than Silybin"},
      {"measurement": "Activity", "setting": "Mus musculus [18]", "result": "Active; Activity Better Than Silybin"},
      {"measurement": "Activity", "setting": "Mus musculus [19]", "result": "Active; Activity Was Better Than Silybin"},
      {"measurement": "Activity", "setting": "Mus musculus [20]", "result": "Active; Activity Was Better Than Silybin"},
      {"measurement": "Activity", "setting": "Mus musculus [21]", "result": "Active; Activity Was Better Than Silybin"},
      {"measurement": "Activity", "setting": "Mus musculus [22]", "result": "Active; Activity Was Better Than Silybin"},
      {"measurement": "Activity", "setting": "Mus musculus [23]", "result": "Active"},
      {"measurement": "Activity", "setting": "Mus musculus [24]", "result": "Active"},
      {"measurement": "Activity", "setting": "Mus musculus [25]", "result": "Active"},
      {"measurement": "Activity", "setting": "Mus musculus [26]", "result": "Active; Activity Was More Significant Than Silybin"},
      {"measurement": "Activity", "setting": "Mus musculus [27]", "result": "Active; Activity Was More Significant Than Silybin"},
      {"measurement": "Activity", "setting": "Mus musculus [28]", "result": "Active; Compound Was More Significant Than Silybin"},
      {"measurement": "Activity", "setting": "Mus musculus [29]", "result": "Active; Compound Was More Significant Than Silybin"},
      {"measurement": "Activity", "setting": "Mus musculus [30]", "result": "Active"},
      {"measurement": "Activity", "setting": "Mus musculus [31]", "result": "Active"},
      {"measurement": "Activity", "setting": "Mus musculus [32]", "result": "Active"},
      {"measurement": "Activity", "setting": "Mus musculus [33]", "result": "Active"},
      {"measurement": "Tmax", "setting": "[34]", "result": 1.99, "unit": "h"},
      {"measurement": "Cmax", "setting": "[35]", "result": 4.08, "unit": "µg/mL"}
    ]}
  ]
}
